Results reported in patent US8921398B2 (Boehringer Ingelheim International GmbH, priority 2011, dated 2014).

target: T1, human GPR119 (Homo sapiens, UniProt Q8TDV5); experiment: AlphaScreen cAMP assay in MIN6 cells stably transfected with human GPR119; assay type: cell-based; settings: Min-6/hGPR119 cells, 45 minutes incubation at room temperature
T1 construct: expression vector for human GPR119 cDNA (Acc. No. NP_848566); expressed in transfected cells
T1 sequence (Q8TDV5 1-335): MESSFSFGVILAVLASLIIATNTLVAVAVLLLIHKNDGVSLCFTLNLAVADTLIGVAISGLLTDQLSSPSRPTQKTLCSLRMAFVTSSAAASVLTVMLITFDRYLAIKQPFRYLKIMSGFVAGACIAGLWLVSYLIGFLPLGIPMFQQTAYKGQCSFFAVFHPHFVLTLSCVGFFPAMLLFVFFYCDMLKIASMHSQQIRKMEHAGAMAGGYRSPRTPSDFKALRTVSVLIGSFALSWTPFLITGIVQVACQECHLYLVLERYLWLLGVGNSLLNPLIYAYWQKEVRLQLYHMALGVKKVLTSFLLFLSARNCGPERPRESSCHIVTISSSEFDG
Description: The compounds of formula I according to the invention modulate the activity of the G-protein-coupled receptor GPR119. The effect of the compounds on the activation of GPR119 and on the stimulation of intracellular cAMP concentration is determined using the AlphaScreen cAMP Assay Kit (Cat.No.#6760625R) made by PerkinElmer.
MIN6 cells [Miyazaki J et al. Endocrinology. 1990 July; 127(1):126-32] are stably transfected with an expression vector for human GPR119 cDNA (Acc. No. NP_848566). Min-6/hGPR119 cells are cultured in DMEM, 10% FBS, 50 μM β-mercaptoethanol, 0.3 mg/mL Geniticin, 2 mM GlutaMAX at 37° C. 5% CO2. For the assay, the cells are seeded in Optiplates (white, 384-well, 160W-barcoded, TC, sterile with lid, Cat.No.#6007688 (Perkin Elmer); 10000 cells/well; 50 μl). The plates covered with lids are then incubated for 24 hours at 37° C./5% CO2. After the medium is aspirated from the wells completely, 10 μl of the test compound are added, the compounds are diluted using stimulating buffer (140 mM NaCl, 3.6 mM KCl, 0.5 mM NaH2PO4, 0.5 mM MgSO4, 1.5 mM CaCl2, 10 mM Hepes, 5 mM NaHCO3; pH 7.4. 0.5 mM IBMX and 0.1% BSA, the final DMSO concentration is 1%). After 45 minutes incubation at room temperature (approx. 20° C.), the cAMP concentrations are determined using the AlphaScreen cAMP Assay Kit (Cat.No.#6760625R from PerkinElmer).

Structure (SMILES)	EC50
O=C(c1cnc(-n2ccnc2)nc1)N(C1CC1)C1CCN(c2nc(-c3ccccc3)no2)CC1 [Example 1, 2-Imidazol-1-yl-pyrimidine-5-carboxylic acid cyclopropyl-[1-(3-phenyl-[1,2,4]oxadiazol-5-yl)-piperidin-4-yl]-amide]	31 nM
CCCc1noc(N2CCC(N(C(=O)c3cnc(-n4ccnc4)nc3)C3CC3)CC2)n1 [Example 21, 2-Imidazol-1-yl-pyrimidine-5-carboxylic acid cyclopropyl-[1-(3-propyl-[1,2,4]oxadiazol-5-yl)-piperidin-4-yl]-amide]	123 nM
CCc1cnc(N2CCC(N(C(=O)c3cnc(-c4ccc(C#N)c(F)c4)nc3)C3CC3)CC2)nc1 [Example 4]	94 nM
CS(=O)(=O)c1ccc(-c2ncc(C(=O)N(C3CC3)C3CCN(c4noc(C5CC5)n4)CC3)cn2)cc1 [Example 20, 2-(4-Methanesulfonyl-phenyl)-pyrimidine-5-carboxylic acid cyclopropyl-[1-(5-cyclopropyl-[1,2,4]oxadiazol-3-yl)-piperidin-4-yl]-amide]	92 nM
CCCc1noc(N2CCC(N(C(=O)c3cnc(-c4ccc(S(C)(=O)=O)cc4)nc3)C3CC3)CC2)n1 [Example 16, 2-(4-Methanesulfonyl-phenyl)-pyrimidine-5-carboxylic acid cyclopropyl-[1-(3-propyl-[1,2,4]oxadiazol-5-yl)-piperidin-4-yl]-amide]	159 nM
CCOc1ccc(-c2ncc(C(=O)N(C3CC3)C3CCN(c4nc(CC)no4)CC3)cn2)cn1 [Example 10, 2-(6-Ethoxy-pyridin-3-yl)-pyrimidine-5-carboxylic acid cyclopropyl-[1-(3-ethyl-[1,2,4]oxadiazol-5-yl)-piperidin-4-yl]-amide]	101 nM
CCc1noc(N2CCC(N(C(=O)c3cnc(-c4ccc(CC#N)cc4)nc3)C3CC3)CC2)n1 [Example 8, 2-(4-Cyanomethyl-phenyl)-pyrimidine-5-carboxylic acid cyclopropyl-[1-(3-ethyl-[1,2,4]oxadiazol-5-yl)-piperidin-4-yl]-amide]	36 nM
O=C(c1cnc(-c2ccncc2)nc1)N(C1CC1)C1CCN(c2nc(-c3ccccc3)no2)CC1 [Example 2, 2-Pyridin-4-yl-pyrimidine-5-carboxylic acid cyclopropyl-[1-(3-phenyl-[1,2,4]oxadiazol-5-yl)-piperidin-4-yl]-amide]	11 nM
CCc1cnc(N2CCC(N(C(=O)c3cnc(-c4ccc(S(C)(=O)=O)cc4)nc3)C3CC3)CC2)nc1 [Example 13, 2-(4-Methanesulfonyl-phenyl)-pyrimidine-5-carboxylic acid cyclopropyl-[1-(5-ethyl-pyrimidin-2-yl)-piperidin-4-yl]-amide]	24 nM
CCOc1ccc(-c2ncc(C(=O)N(C3CC3)C3CCN(c4nc(-c5ccccc5)no4)CC3)cn2)cn1 [Example 7, 2-(6-Ethoxy-pyridin-3-yl)-pyrimidine-5-carboxylic acid cyclopropyl-[1-(3-phenyl[1,2,4]oxadiazol-5-yl)-piperidin-4-yl]amide]	25 nM
N#CCc1ccc(-c2ncc(C(=O)N(C3CC3)C3CCN(c4nc(-c5ccccc5)no4)CC3)cn2)cc1 [Example 9, 2-(4-Cyanomethyl-phenyl)-pyrimidine-5-carboxylic acid cyclopropyl-[1-(3-phenyl-[1,2,4]oxadiazol-5-yl)-piperidin-4-yl]-amide]	19 nM
CCc1cnc(N2CCC(N(C(=O)c3cnc(-c4ccc(CC#N)cc4)nc3)C3CC3)CC2)nc1 [Example 5, 2-(4-Cyanomethyl-phenyl)-pyrimidine-5-carboxylic acid cyclopropyl-[1-(5-ethyl-pyrimidin-2-yl)-piperidin-4-yl]-amide]	118 nM

Next, values leading:

EC50	Structure (SMILES)
14 nM	CC(C)(C)c1noc(N2CCC(N(C(=O)c3cnc(-c4cnco4)cn3)C3CC3)CC2)n1 [Example 32, 5-Oxazol-5-yl-pyrazine-2-carboxylic acid [1-(3-tert-butyl-[1,2,4]oxadiazol-5-yl)-piperidin-4-yl]-cyclopropyl-amide]
46 nM	CC(C)(C)c1noc(N2CCC(N(C(=O)c3ccc(-c4cnco4)nc3)C3CC3)CC2)n1 [Example 36, N-[1-(3-tert-Butyl-[1,2,4]oxadiazol-5-yl)-piperidin-4-yl]-N-cyclopropyl-6-oxazol-5-yl-nicotinamide]
137 nM	CCCc1noc(N2CCC(N(C(=O)c3cnc(-n4ccnc4C)nc3)C3CC3)CC2)n1 [Example 22, 2-(2-Methyl-imidazol-1-yl)-pyrimidine-5-carboxylic acid cyclopropyl-[1-(3-propyl-[1,2,4]oxadiazol-5-yl)-piperidin-4-yl]-amide]
3 nM	CC(C)c1noc(N2CCC(N(C(=O)c3cc(-c4ccc(C#N)cc4F)on3)C3CC3)CC2)n1 [Example 29, 5-(4-Cyano-2-fluoro-phenyl)-isoxazole-3-carboxylic acid cyclopropyl-[1-(3-isopropyl-[1,2,4]oxadiazol-5-yl)-piperidin-4-yl]-amide]
83 nM	Cc1nccn1-c1ncc(C(=O)N(C2CC2)C2CCN(c3noc(C4CC4)n3)CC2)cn1 [Example 24, 2-(2-Methyl-imidazol-1-yl)-pyrimidine-5-carboxylic acid cyclopropyl-[1-(5-cyclopropyl-[1,2,4]oxadiazol-3-yl)-piperidin-4-yl]-amide]
231 nM	Cc1cnc(N2CCC(N(C(=O)c3ccc(-c4cnco4)nc3)C3CC3)CC2)cn1 [Example 42, N-Cyclopropyl-N-[1-(5-methyl-pyrazin-2-yl)-piperidin-4-yl]-6-oxazol-5-yl-nicotinamide]
103 nM	O=C(c1cnc(-n2ccnc2)nc1)N(C1CC1)C1CCN(c2noc(C3CC3)n2)CC1 [Example 25, 2-Imidazol-1-yl-pyrimidine-5-carboxylic acid cyclopropyl-[1-(5-cyclopropyl-[1,2,4]oxadiazol-3-yl)-piperidin-4-yl]-amide]
159 nM	Cc1cnc(N2CCC(N(C(=O)c3ccc(-c4cnco4)nc3)C3CC3)CC2)nc1 [Example 41, N-Cyclopropyl-N-[1-(5-methyl-pyrimidin-2-yl)-piperidin-4-yl]-6-oxazol-5-yl-nicotinamide]
33 nM	CC(C)c1noc(N2CCC(N(C(=O)c3ccc(-c4cnco4)nc3)C3CC3)CC2)n1 [Example 35, N-Cyclopropyl-N-[1-(3-isopropyl-[1,2,4]oxadiazol-5-yl)-piperidin-4-yl]-6-oxazol-5-yl-nicotinamide]
27 nM	CCc1cnc(N2CCC(N(C(=O)c3ccc(-c4cnco4)nc3)C3CC3)CC2)nc1 [Example 34, N-Cyclopropyl-N-[1-(5-ethyl-pyrimidin-2-yl)-piperidin-4-yl]-6-oxazol-5-yl-nicotinamide]
3 nM	CC(C)c1noc(N2CCC(N(C(=O)c3cc(-c4ccc(C#N)cc4F)no3)C3CC3)CC2)n1 [Example 28, 3-(4-Cyano-2-fluoro-phenyl)-isoxazole-5-carboxylic acid cyclopropyl-[1-(3-isopropyl-[1,2,4]oxadiazol-5-yl)-piperidin-4-yl]-amide]
25 nM	CC(C)c1noc(N2CCC(N(C(=O)c3cnc(-c4cnco4)cn3)C3CC3)CC2)n1 [Example 33, 5-Oxazol-5-yl-pyrazine-2-carboxylic acid cyclopropyl-[1-(3-isopropyl-[1,2,4]oxadiazol-5-yl)-piperidin-4-yl]amide]
